Measured values reported in ChEMBL document CHEMBL1145498, “A systematic interaction map of validated kinase inhibitors with Ser/Thr kinases” (Proc Natl Acad Sci U S A, 2007).

These compounds were tested against Mitogen-activated protein kinase 6 (Homo sapiens) (UniProt Q16659). Details: not given.
Sequence of Mitogen-activated protein kinase 6 (Homo sapiens) (Q16659 whole entry): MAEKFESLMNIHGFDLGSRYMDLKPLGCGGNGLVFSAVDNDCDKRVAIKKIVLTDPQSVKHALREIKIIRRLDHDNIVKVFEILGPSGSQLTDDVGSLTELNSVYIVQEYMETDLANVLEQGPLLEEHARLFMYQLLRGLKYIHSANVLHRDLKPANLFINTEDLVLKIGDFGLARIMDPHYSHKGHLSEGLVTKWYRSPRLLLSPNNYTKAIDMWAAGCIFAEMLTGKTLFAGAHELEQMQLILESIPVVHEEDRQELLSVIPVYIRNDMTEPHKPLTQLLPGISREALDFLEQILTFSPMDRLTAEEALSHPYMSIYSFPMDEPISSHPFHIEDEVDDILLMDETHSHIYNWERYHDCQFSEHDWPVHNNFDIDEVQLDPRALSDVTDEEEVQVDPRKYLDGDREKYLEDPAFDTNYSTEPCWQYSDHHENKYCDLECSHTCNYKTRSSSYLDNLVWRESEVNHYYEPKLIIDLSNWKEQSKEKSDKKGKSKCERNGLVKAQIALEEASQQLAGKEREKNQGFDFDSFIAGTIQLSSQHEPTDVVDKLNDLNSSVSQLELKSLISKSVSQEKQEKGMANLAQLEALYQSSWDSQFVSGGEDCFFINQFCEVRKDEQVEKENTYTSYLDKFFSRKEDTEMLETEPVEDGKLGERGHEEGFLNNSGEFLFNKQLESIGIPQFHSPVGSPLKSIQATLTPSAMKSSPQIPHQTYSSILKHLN

| ΔTm [°C] | Structure (SMILES) |
| --- | --- |
| -1.1 | O=C1C(Cl)=C(N2C(=O)CCC2=O)C(=O)c2ccccc21 |
| 1.1 | O=C1Nc2ccc(S(=O)(=O)O)cc2/C1=C1/Nc2ccccc2/C1=N\O |
| 0.4 | N#C/C(=C(/N)Sc1ccc(N)cc1)c1ccccc1C(F)(F)F |

The compounds below were run against Dual specificity protein kinase CLK3 (Homo sapiens) (UniProt P49761). Details: not given.
Sequence of Dual specificity protein kinase CLK3 (Homo sapiens) (P49761 whole entry, looked up): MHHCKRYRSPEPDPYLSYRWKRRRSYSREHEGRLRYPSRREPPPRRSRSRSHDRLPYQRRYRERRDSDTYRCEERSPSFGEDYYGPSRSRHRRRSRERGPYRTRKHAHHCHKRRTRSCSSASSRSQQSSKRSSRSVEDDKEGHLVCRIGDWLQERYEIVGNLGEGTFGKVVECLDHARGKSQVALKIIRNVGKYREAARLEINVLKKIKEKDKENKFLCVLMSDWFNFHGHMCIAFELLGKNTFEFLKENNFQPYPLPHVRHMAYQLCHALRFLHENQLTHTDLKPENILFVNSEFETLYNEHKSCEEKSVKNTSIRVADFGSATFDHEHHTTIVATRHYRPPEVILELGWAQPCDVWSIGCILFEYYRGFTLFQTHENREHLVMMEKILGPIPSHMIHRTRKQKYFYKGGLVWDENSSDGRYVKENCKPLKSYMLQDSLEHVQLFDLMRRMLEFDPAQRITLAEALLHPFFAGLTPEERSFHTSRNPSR

| ΔTm [°C] | Structure (SMILES) |
| --- | --- |
| -1.3 | O=C1C(Cl)=C(N2C(=O)CCC2=O)C(=O)c2ccccc21 |
| 3.5 | O=C1Nc2ccc(S(=O)(=O)O)cc2/C1=C1/Nc2ccccc2/C1=N\O |
| 0 | N#C/C(=C(/N)Sc1ccc(N)cc1)c1ccccc1C(F)(F)F |

Each compound was assayed against T1, Myotonin-protein kinase (Homo sapiens) (UniProt Q09013). Details: not given.
T1 sequence (whole entry): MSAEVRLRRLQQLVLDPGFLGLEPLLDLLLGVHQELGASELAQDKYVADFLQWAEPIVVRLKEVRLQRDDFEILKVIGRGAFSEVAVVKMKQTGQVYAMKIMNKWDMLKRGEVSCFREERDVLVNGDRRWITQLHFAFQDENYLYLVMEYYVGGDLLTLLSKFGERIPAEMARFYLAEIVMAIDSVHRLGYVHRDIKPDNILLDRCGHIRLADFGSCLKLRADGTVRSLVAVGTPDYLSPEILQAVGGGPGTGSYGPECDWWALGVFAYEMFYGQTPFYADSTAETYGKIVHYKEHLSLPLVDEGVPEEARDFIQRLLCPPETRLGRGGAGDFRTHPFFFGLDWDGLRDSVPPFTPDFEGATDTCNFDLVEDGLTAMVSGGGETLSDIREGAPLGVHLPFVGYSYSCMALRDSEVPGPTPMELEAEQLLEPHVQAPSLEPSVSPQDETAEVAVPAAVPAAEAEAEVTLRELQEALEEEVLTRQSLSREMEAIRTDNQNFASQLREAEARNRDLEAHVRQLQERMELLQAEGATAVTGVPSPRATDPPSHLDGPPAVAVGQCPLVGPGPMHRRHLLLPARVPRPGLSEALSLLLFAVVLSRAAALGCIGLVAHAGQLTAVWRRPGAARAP

| ΔTm [°C] | Structure (SMILES) |
| --- | --- |
| -0.9 | O=C1C(Cl)=C(N2C(=O)CCC2=O)C(=O)c2ccccc21 |
| 1.8 | O=C1Nc2ccc(S(=O)(=O)O)cc2/C1=C1/Nc2ccccc2/C1=N\O |
| 0.3 | N#C/C(=C(/N)Sc1ccc(N)cc1)c1ccccc1C(F)(F)F |

These compounds were tested against Serine/threonine-protein kinase PLK1 (Homo sapiens) (UniProt P53350). Details: not given.

| ΔTm [°C] | Structure (SMILES) |
| --- | --- |
| -0.2 | O=C1C(Cl)=C(N2C(=O)CCC2=O)C(=O)c2ccccc21 |
| 1.1 | O=C1Nc2ccc(S(=O)(=O)O)cc2/C1=C1/Nc2ccccc2/C1=N\O |
| -0.2 | N#C/C(=C(/N)Sc1ccc(N)cc1)c1ccccc1C(F)(F)F |

What follows are compounds tested against Calcium/calmodulin-dependent protein kinase type II subunit alpha (Homo sapiens) (UniProt Q9UQM7). Details: not given.
Sequence of Calcium/calmodulin-dependent protein kinase type II subunit alpha (Homo sapiens) (Q9UQM7 whole entry): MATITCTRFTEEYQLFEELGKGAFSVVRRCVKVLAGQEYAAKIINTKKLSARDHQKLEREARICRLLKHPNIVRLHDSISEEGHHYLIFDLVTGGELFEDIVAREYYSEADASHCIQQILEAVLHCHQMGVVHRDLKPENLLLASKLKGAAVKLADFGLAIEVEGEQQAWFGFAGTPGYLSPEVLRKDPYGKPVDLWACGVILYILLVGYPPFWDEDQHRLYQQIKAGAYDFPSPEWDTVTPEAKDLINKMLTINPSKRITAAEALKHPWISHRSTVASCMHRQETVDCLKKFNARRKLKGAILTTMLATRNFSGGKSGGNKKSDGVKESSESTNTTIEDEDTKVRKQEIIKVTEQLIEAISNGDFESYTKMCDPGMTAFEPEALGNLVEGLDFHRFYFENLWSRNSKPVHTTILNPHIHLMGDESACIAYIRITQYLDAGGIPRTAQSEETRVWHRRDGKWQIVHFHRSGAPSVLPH

| ΔTm [°C] | Structure (SMILES) |
| --- | --- |
| 3.4 | O=C1C(Cl)=C(N2C(=O)CCC2=O)C(=O)c2ccccc21 |
| 4.8 | O=C1Nc2ccc(S(=O)(=O)O)cc2/C1=C1/Nc2ccccc2/C1=N\O |
| 0.6 | N#C/C(=C(/N)Sc1ccc(N)cc1)c1ccccc1C(F)(F)F |

These compounds were tested against T2, Mitogen-activated protein kinase 3 (Homo sapiens, UniProt P27361). Details: not given.

| ΔTm [°C] | Structure (SMILES) |
| --- | --- |
| 1 | O=C1C(Cl)=C(N2C(=O)CCC2=O)C(=O)c2ccccc21 |
| 2.4 | O=C1Nc2ccc(S(=O)(=O)O)cc2/C1=C1/Nc2ccccc2/C1=N\O |
| -0.1 | N#C/C(=C(/N)Sc1ccc(N)cc1)c1ccccc1C(F)(F)F |

These compounds were tested against Glycogen synthase kinase-3 beta (Homo sapiens, UniProt P49841) (assay: Inhibition of GSK3-beta). Details: read-out: IC50.

| IC50 [µM] | Structure (SMILES) |
| --- | --- |
| 0.08 | O=C1Nc2ccc(S(=O)(=O)O)cc2/C1=C1/Nc2ccccc2/C1=N\O |

Each compound was assayed against T2, Mitogen-activated protein kinase 3 (assay: Inhibition of ERK1). Details: not given.

| IC50 [µM] | Structure (SMILES) |
| --- | --- |
| 82.9 | O=C1C(Cl)=C(N2C(=O)CCC2=O)C(=O)c2ccccc21 |
| > 10 | N#C/C(=C(/N)Sc1ccc(N)cc1)c1ccccc1C(F)(F)F |

These compounds were tested against Calcium/calmodulin-dependent protein kinase type II subunit gamma (Homo sapiens) (UniProt Q13555). Details: not given.

| ΔTm [°C] | Structure (SMILES) |
| --- | --- |
| -0.4 | O=C1C(Cl)=C(N2C(=O)CCC2=O)C(=O)c2ccccc21 |
| 2.5 | O=C1Nc2ccc(S(=O)(=O)O)cc2/C1=C1/Nc2ccccc2/C1=N\O |
| 0.1 | N#C/C(=C(/N)Sc1ccc(N)cc1)c1ccccc1C(F)(F)F |

What follows are compounds tested against TRAF2 and NCK-interacting protein kinase (Homo sapiens) (UniProt Q9UKE5). Details: not given.
Sequence of TRAF2 and NCK-interacting protein kinase (Homo sapiens) (Q9UKE5 whole entry, looked up): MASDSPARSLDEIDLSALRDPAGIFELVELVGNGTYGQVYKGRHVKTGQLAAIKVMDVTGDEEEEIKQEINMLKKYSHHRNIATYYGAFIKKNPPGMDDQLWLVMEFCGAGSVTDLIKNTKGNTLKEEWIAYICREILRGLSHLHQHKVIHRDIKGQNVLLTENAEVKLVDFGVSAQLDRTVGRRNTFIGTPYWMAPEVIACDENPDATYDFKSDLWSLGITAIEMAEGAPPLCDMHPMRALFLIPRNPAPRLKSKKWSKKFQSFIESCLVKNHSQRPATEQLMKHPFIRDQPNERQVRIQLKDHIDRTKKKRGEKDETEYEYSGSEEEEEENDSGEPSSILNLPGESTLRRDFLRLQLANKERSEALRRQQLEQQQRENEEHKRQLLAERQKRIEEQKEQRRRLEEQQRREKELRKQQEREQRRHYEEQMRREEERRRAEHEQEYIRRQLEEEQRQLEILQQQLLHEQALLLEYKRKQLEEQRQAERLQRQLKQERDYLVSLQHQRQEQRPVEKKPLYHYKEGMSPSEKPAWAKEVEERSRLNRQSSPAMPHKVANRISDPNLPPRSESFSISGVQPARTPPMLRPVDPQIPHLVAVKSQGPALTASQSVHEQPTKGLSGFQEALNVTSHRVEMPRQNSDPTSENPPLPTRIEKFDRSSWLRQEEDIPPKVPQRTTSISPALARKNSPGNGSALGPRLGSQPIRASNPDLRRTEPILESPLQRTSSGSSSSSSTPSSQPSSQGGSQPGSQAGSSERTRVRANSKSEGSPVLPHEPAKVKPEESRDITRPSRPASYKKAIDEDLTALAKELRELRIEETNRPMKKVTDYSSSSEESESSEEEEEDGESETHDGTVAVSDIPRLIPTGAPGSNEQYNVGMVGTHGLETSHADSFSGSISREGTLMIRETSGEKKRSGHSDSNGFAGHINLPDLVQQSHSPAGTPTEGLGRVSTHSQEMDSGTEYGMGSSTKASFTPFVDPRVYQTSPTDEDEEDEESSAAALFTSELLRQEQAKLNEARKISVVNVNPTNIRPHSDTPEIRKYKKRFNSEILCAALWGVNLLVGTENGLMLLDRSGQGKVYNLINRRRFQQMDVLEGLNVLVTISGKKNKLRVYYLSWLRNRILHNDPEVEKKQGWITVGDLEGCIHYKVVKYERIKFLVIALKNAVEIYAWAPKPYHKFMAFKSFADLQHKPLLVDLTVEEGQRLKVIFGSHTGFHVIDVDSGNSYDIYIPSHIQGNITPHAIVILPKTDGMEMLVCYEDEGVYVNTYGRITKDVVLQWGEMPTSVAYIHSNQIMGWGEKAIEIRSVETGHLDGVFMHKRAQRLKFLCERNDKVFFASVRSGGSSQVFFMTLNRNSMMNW

| ΔTm [°C] | Structure (SMILES) |
| --- | --- |
| -2.4 | O=C1C(Cl)=C(N2C(=O)CCC2=O)C(=O)c2ccccc21 |
| 2.4 | O=C1Nc2ccc(S(=O)(=O)O)cc2/C1=C1/Nc2ccccc2/C1=N\O |
| -0.1 | N#C/C(=C(/N)Sc1ccc(N)cc1)c1ccccc1C(F)(F)F |

What follows are compounds tested against Calcium/calmodulin-dependent protein kinase type II subunit beta (Homo sapiens) (UniProt Q13554). Details: not given.

| ΔTm [°C] | Structure (SMILES) |
| --- | --- |
| -1.5 | O=C1C(Cl)=C(N2C(=O)CCC2=O)C(=O)c2ccccc21 |
| 1.8 | O=C1Nc2ccc(S(=O)(=O)O)cc2/C1=C1/Nc2ccccc2/C1=N\O |
| 0.5 | N#C/C(=C(/N)Sc1ccc(N)cc1)c1ccccc1C(F)(F)F |

Each compound was assayed against T3, Serine/threonine-protein kinase VRK1 (Homo sapiens) (UniProt Q99986). Details: not given.
T3 sequence (whole entry): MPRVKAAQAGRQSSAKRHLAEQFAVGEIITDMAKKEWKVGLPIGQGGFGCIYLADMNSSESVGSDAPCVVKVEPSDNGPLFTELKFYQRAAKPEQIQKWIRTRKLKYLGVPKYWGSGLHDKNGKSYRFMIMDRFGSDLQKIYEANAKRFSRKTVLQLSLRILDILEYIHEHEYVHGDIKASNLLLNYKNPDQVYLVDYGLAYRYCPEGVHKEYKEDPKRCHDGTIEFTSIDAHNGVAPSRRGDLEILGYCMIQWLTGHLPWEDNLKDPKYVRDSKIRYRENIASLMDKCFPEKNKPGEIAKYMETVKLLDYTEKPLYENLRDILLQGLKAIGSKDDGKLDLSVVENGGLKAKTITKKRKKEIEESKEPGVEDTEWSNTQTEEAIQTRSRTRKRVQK

| ΔTm [°C] | Structure (SMILES) |
| --- | --- |
| -0.6 | O=C1C(Cl)=C(N2C(=O)CCC2=O)C(=O)c2ccccc21 |
| 0 | O=C1Nc2ccc(S(=O)(=O)O)cc2/C1=C1/Nc2ccccc2/C1=N\O |
| 0.4 | N#C/C(=C(/N)Sc1ccc(N)cc1)c1ccccc1C(F)(F)F |

What follows are compounds tested against Death-associated protein kinase 3 (Homo sapiens) (UniProt O43293). Details: not given.
Sequence of Death-associated protein kinase 3 (Homo sapiens) (O43293 whole entry, looked up): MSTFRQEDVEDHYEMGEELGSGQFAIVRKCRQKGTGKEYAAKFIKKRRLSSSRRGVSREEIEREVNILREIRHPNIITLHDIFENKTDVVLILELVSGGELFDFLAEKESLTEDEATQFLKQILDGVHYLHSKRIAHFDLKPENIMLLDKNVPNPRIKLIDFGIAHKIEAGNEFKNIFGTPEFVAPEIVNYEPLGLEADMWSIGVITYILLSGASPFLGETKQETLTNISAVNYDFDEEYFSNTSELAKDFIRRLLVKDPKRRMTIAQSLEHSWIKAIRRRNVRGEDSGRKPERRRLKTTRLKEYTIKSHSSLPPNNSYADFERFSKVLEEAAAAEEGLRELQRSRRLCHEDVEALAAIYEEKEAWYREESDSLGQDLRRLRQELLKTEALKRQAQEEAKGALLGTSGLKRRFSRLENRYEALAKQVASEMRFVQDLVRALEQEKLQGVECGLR

| Structure (SMILES) | ΔTm [°C] |
| --- | --- |
| O=C1C(Cl)=C(N2C(=O)CCC2=O)C(=O)c2ccccc21 | -7.6 |
| O=C1Nc2ccc(S(=O)(=O)O)cc2/C1=C1/Nc2ccccc2/C1=N\O | 6.4 |
| N#C/C(=C(/N)Sc1ccc(N)cc1)c1ccccc1C(F)(F)F | -0.2 |

Each compound was assayed against Casein kinase I isoform gamma-1 (Homo sapiens) (UniProt Q9HCP0). Details: not given.
Sequence of Casein kinase I isoform gamma-1 (Homo sapiens) (Q9HCP0 whole entry, looked up, canonical isoform): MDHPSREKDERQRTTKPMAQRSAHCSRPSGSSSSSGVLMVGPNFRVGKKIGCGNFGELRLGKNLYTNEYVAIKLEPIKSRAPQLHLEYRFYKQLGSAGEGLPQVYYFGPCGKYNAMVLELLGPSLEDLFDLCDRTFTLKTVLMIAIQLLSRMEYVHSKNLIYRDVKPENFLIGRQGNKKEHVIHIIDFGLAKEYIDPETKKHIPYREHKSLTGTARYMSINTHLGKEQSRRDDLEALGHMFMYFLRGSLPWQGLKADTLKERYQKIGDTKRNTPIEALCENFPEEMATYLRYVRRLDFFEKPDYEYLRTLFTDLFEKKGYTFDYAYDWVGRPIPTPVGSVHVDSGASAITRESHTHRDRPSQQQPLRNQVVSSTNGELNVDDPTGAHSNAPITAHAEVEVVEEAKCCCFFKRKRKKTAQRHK

| ΔTm [°C] | Structure (SMILES) |
| --- | --- |
| 0.7 | O=C1C(Cl)=C(N2C(=O)CCC2=O)C(=O)c2ccccc21 |
| 4 | O=C1Nc2ccc(S(=O)(=O)O)cc2/C1=C1/Nc2ccccc2/C1=N\O |
| 0.5 | N#C/C(=C(/N)Sc1ccc(N)cc1)c1ccccc1C(F)(F)F |

Each compound was assayed against Dual specificity protein kinase CLK2 (Homo sapiens) (UniProt P49760). Details: not given.

| ΔTm [°C] | Structure (SMILES) |
| --- | --- |
| -1.3 | O=C1C(Cl)=C(N2C(=O)CCC2=O)C(=O)c2ccccc21 |
| 3.7 | O=C1Nc2ccc(S(=O)(=O)O)cc2/C1=C1/Nc2ccccc2/C1=N\O |
| 0 | N#C/C(=C(/N)Sc1ccc(N)cc1)c1ccccc1C(F)(F)F |

These compounds were tested against Calcium/calmodulin-dependent protein kinase type II subunit delta (Homo sapiens) (UniProt Q13557). Details: not given.
Sequence of Calcium/calmodulin-dependent protein kinase type II subunit delta (Homo sapiens) (Q13557 whole entry): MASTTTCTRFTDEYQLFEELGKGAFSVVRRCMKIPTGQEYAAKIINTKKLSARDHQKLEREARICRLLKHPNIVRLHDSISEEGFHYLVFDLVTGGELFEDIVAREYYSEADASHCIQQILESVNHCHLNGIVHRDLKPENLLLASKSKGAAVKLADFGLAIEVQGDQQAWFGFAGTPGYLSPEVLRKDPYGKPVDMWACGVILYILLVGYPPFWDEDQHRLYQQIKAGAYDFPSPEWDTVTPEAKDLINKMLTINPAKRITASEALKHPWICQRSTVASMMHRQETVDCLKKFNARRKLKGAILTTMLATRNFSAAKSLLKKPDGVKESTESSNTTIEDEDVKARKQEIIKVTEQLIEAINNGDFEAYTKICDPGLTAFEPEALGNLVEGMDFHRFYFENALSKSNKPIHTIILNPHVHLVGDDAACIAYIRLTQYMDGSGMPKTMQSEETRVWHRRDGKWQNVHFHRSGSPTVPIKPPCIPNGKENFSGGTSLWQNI

| ΔTm [°C] | Structure (SMILES) |
| --- | --- |
| -1.5 | O=C1C(Cl)=C(N2C(=O)CCC2=O)C(=O)c2ccccc21 |
| 1.2 | O=C1Nc2ccc(S(=O)(=O)O)cc2/C1=C1/Nc2ccccc2/C1=N\O |
| 0.1 | N#C/C(=C(/N)Sc1ccc(N)cc1)c1ccccc1C(F)(F)F |

These compounds were tested against Calcium/calmodulin-dependent protein kinase type 1G (Homo sapiens) (UniProt Q96NX5). Details: not given.
Sequence of Calcium/calmodulin-dependent protein kinase type 1G (Homo sapiens) (Q96NX5 whole entry): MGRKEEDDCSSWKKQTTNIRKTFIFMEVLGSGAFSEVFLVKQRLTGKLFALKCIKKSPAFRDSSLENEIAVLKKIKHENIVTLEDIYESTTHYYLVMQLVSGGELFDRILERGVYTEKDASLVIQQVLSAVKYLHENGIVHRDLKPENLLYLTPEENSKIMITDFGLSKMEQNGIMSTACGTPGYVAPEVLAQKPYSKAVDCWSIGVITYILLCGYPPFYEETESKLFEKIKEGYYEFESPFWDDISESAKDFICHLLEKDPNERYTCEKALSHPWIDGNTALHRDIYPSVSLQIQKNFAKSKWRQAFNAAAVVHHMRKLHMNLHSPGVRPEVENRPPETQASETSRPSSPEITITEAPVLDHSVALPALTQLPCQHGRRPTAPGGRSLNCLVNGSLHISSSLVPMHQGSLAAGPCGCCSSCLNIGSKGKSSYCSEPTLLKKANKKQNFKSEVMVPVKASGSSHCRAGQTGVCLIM

| ΔTm [°C] | Structure (SMILES) |
| --- | --- |
| -1.9 | O=C1C(Cl)=C(N2C(=O)CCC2=O)C(=O)c2ccccc21 |
| 2 | O=C1Nc2ccc(S(=O)(=O)O)cc2/C1=C1/Nc2ccccc2/C1=N\O |
| 0.2 | N#C/C(=C(/N)Sc1ccc(N)cc1)c1ccccc1C(F)(F)F |

What follows are compounds tested against Serine/threonine-protein kinase OSR1 (Homo sapiens) (UniProt O95747). Details: not given.

| ΔTm [°C] | Structure (SMILES) |
| --- | --- |
| -1.4 | O=C1C(Cl)=C(N2C(=O)CCC2=O)C(=O)c2ccccc21 |
| 0.1 | O=C1Nc2ccc(S(=O)(=O)O)cc2/C1=C1/Nc2ccccc2/C1=N\O |
| 0.5 | N#C/C(=C(/N)Sc1ccc(N)cc1)c1ccccc1C(F)(F)F |

Each compound was assayed against Dual specificity mitogen-activated protein kinase kinase 2 (Homo sapiens, UniProt P36507). Details: not given.

| ΔTm [°C] | Structure (SMILES) |
| --- | --- |
| -2.4 | O=C1C(Cl)=C(N2C(=O)CCC2=O)C(=O)c2ccccc21 |
| 4.9 | O=C1Nc2ccc(S(=O)(=O)O)cc2/C1=C1/Nc2ccccc2/C1=N\O |
| 0.8 | N#C/C(=C(/N)Sc1ccc(N)cc1)c1ccccc1C(F)(F)F |

What follows are compounds tested against T4, Dual specificity mitogen-activated protein kinase kinase 6 (Homo sapiens) (UniProt P52564). Details: not given.
T4 sequence (whole entry): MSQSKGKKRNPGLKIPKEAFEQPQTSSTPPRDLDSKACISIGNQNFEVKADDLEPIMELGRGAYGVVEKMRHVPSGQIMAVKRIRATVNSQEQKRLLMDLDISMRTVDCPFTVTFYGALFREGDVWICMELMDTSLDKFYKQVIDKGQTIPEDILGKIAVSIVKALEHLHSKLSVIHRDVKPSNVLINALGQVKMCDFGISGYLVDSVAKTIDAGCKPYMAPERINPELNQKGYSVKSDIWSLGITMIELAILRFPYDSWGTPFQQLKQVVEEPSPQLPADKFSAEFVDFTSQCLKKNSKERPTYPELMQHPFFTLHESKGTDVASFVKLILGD

| ΔTm [°C] | Structure (SMILES) |
| --- | --- |
| -11 | O=C1C(Cl)=C(N2C(=O)CCC2=O)C(=O)c2ccccc21 |
| 3.5 | O=C1Nc2ccc(S(=O)(=O)O)cc2/C1=C1/Nc2ccccc2/C1=N\O |
| 0.2 | N#C/C(=C(/N)Sc1ccc(N)cc1)c1ccccc1C(F)(F)F |
